Measured values published in the NIST ThermoML archive (doi:10.1007/s10765-006-0063-0).

Assays:
[1] = 101.33 kPa, Liquid; for speed of sound: Sing-around technique in a fixed-path interferometer
[2] = xn = mol fraction of the nth substance listed; conditions: 101 kPa, Liquid, Sing-around technique in a fixed-path interferometer

C1CCCC1 [cyclopentane]
[1]
Conditions | mass density [kg/m3] | speed of sound [m/s]
283.15 K | 754.9 | 1283.5
298.15 K | 739.7 | 1206.6
313.15 K | 724.7 | 1129.9

C1COCO1 [1,3-dioxolane] + C1CCCCC1
[2]
Conditions | speed of sound [m/s]
283.15 K, x1 = 0.1044 | 1322
283.15 K, x1 = 0.2011 | 1317.6
283.15 K, x1 = 0.3005 | 1315.4
283.15 K, x1 = 0.4009 | 1316
283.15 K, x1 = 0.4998 | 1319.7
283.15 K, x1 = 0.602 | 1327.3
283.15 K, x1 = 0.7002 | 1339
283.15 K, x1 = 0.7989 | 1355.7
283.15 K, x1 = 0.8989 | 1377.7
298.15 K, x1 = 0.0998 | 1245.1
298.15 K, x1 = 0.2014 | 1240
298.15 K, x1 = 0.3019 | 1238.7
298.15 K, x1 = 0.4043 | 1240.5
298.15 K, x1 = 0.4993 | 1245.3
298.15 K, x1 = 0.6028 | 1254.2
298.15 K, x1 = 0.6998 | 1266.9
298.15 K, x1 = 0.8003 | 1284.9
298.15 K, x1 = 0.8992 | 1308.9
313.15 K, x1 = 0.1213 | 1172.5
313.15 K, x1 = 0.2006 | 1167.6
313.15 K, x1 = 0.2996 | 1166.6
313.15 K, x1 = 0.3996 | 1168.8
313.15 K, x1 = 0.5009 | 1174.2
313.15 K, x1 = 0.6 | 1183.2
313.15 K, x1 = 0.6979 | 1196.3
313.15 K, x1 = 0.7987 | 1215.2
313.15 K, x1 = 0.8991 | 1240

C1COCCO1 [1,4-dioxane]
[1]
Conditions | mass density [kg/m3] | speed of sound [m/s]
283.15 K | 1045.2 | 1409.6
298.15 K | 1027.9 | 1343.6
313.15 K | 1011 | 1278.8

C1COCCO1 [1,4-dioxane] + c1ccccc1
[2]
Conditions | speed of sound [m/s]
283.15 K, x1 = 0.0521 | 1370.8
283.15 K, x1 = 0.0942 | 1372.6
283.15 K, x1 = 0.1987 | 1376.5
283.15 K, x1 = 0.2956 | 1380.2
283.15 K, x1 = 0.3936 | 1383.8
283.15 K, x1 = 0.4947 | 1387.4
283.15 K, x1 = 0.5964 | 1391.1
283.15 K, x1 = 0.6956 | 1395.1
283.15 K, x1 = 0.7963 | 1399.3
283.15 K, x1 = 0.8949 | 1404.1
283.15 K, x1 = 0.9526 | 1407.1
298.15 K, x1 = 0.0516 | 1300.8
298.15 K, x1 = 0.0888 | 1302.4
298.15 K, x1 = 0.1966 | 1307.3
298.15 K, x1 = 0.316 | 1312.2
298.15 K, x1 = 0.4145 | 1316.3
298.15 K, x1 = 0.5004 | 1320
298.15 K, x1 = 0.5975 | 1324.1
298.15 K, x1 = 0.6932 | 1328.4
298.15 K, x1 = 0.7962 | 1333.1
298.15 K, x1 = 0.8938 | 1338
298.15 K, x1 = 0.9535 | 1341.1
313.15 K, x1 = 0.0568 | 1232.1
313.15 K, x1 = 0.0913 | 1233.6
313.15 K, x1 = 0.2021 | 1239.2
313.15 K, x1 = 0.2963 | 1243.7
313.15 K, x1 = 0.3981 | 1248.6
313.15 K, x1 = 0.4975 | 1253.1
313.15 K, x1 = 0.5981 | 1257.9
313.15 K, x1 = 0.6972 | 1262.7
313.15 K, x1 = 0.7941 | 1267.5
313.15 K, x1 = 0.9034 | 1273.3
313.15 K, x1 = 0.9424 | 1275.5

C1CCCCC1 [cyclohexane]
[1]
Conditions | mass density [kg/m3] | speed of sound [m/s]
283.15 K | 788 | 1327.8
298.15 K | 773.7 | 1254.4
313.15 K | 759.6 | 1181.1

C1COCO1 [1,3-dioxolane]
[1]
Conditions | mass density [kg/m3] | speed of sound [m/s]
283.15 K | 1077.1 | 1406.3
298.15 K | 1058.8 | 1339.9
313.15 K | 1040.2 | 1271.6

c1ccccc1 [benzene]
[1]
Conditions | mass density [kg/m3] | speed of sound [m/s]
283.15 K | 889.9 | 1368.7
298.15 K | 873.5 | 1298.3
313.15 K | 857.5 | 1229.5

C1COCO1 [1,3-dioxolane] + c1ccccc1
[2]
Conditions | speed of sound [m/s]
283.15 K, x1 = 0.1037 | 1373.9
283.15 K, x1 = 0.2005 | 1377.2
283.15 K, x1 = 0.2977 | 1380.5
283.15 K, x1 = 0.4007 | 1383.5
283.15 K, x1 = 0.4995 | 1386.6
283.15 K, x1 = 0.5967 | 1389.7
283.15 K, x1 = 0.6984 | 1393.7
283.15 K, x1 = 0.7942 | 1397.3
283.15 K, x1 = 0.8973 | 1401.7
298.15 K, x1 = 0.1 | 1303.1
298.15 K, x1 = 0.2022 | 1306.8
298.15 K, x1 = 0.3002 | 1310.1
298.15 K, x1 = 0.4021 | 1313.6
298.15 K, x1 = 0.4957 | 1317
298.15 K, x1 = 0.5968 | 1320.7
298.15 K, x1 = 0.6965 | 1325.1
298.15 K, x1 = 0.7985 | 1329.4
298.15 K, x1 = 0.8973 | 1334.2
313.15 K, x1 = 0.1006 | 1233.5
313.15 K, x1 = 0.2 | 1237.2
313.15 K, x1 = 0.2985 | 1240.9
313.15 K, x1 = 0.4136 | 1245.1
313.15 K, x1 = 0.4928 | 1248.1
313.15 K, x1 = 0.5953 | 1252
313.15 K, x1 = 0.6979 | 1256.3
313.15 K, x1 = 0.7968 | 1261.2
313.15 K, x1 = 0.8979 | 1266.3

C1COCCO1 [1,4-dioxane] + C1CCCCC1
[2]
Conditions | speed of sound [m/s]
283.15 K, x1 = 0.0502 | 1323.1
283.15 K, x1 = 0.0999 | 1319.7
283.15 K, x1 = 0.1953 | 1315.8
283.15 K, x1 = 0.2899 | 1315.6
283.15 K, x1 = 0.3996 | 1318.4
283.15 K, x1 = 0.5017 | 1324.5
283.15 K, x1 = 0.6007 | 1333.5
283.15 K, x1 = 0.699 | 1346.1
283.15 K, x1 = 0.7956 | 1362.2
283.15 K, x1 = 0.8994 | 1383.9
283.15 K, x1 = 0.9446 | 1394.9
298.15 K, x1 = 0.0535 | 1250
298.15 K, x1 = 0.1053 | 1246.9
298.15 K, x1 = 0.1998 | 1244.4
298.15 K, x1 = 0.3003 | 1245
298.15 K, x1 = 0.4026 | 1248.6
298.15 K, x1 = 0.5006 | 1255.2
298.15 K, x1 = 0.5971 | 1264.5
298.15 K, x1 = 0.7028 | 1278.6
298.15 K, x1 = 0.8089 | 1296.9
298.15 K, x1 = 0.9038 | 1318.4
298.15 K, x1 = 0.9485 | 1330.2
313.15 K, x1 = 0.0497 | 1177.3
313.15 K, x1 = 0.102 | 1174.3
313.15 K, x1 = 0.1944 | 1172.4
313.15 K, x1 = 0.2926 | 1173.7
313.15 K, x1 = 0.3973 | 1178.3
313.15 K, x1 = 0.4969 | 1185.8
313.15 K, x1 = 0.5992 | 1196.7
313.15 K, x1 = 0.6988 | 1211
313.15 K, x1 = 0.7966 | 1229
313.15 K, x1 = 0.8972 | 1251.3
313.15 K, x1 = 0.9505 | 1264.9

C1CCCC1 [cyclopentane] + C1COCCO1
[2]
Conditions | speed of sound [m/s]
283.15 K, x2 = 0.0516 | 1280.7
283.15 K, x2 = 0.095 | 1279.4
283.15 K, x2 = 0.1944 | 1280.5
283.15 K, x2 = 0.2987 | 1286
283.15 K, x2 = 0.3973 | 1294.2
283.15 K, x2 = 0.499 | 1305.8
283.15 K, x2 = 0.6003 | 1320.5
283.15 K, x2 = 0.7063 | 1339.6
283.15 K, x2 = 0.8072 | 1361
283.15 K, x2 = 0.9076 | 1385.1
283.15 K, x2 = 0.9528 | 1397
298.15 K, x2 = 0.0488 | 1204.5
298.15 K, x2 = 0.0945 | 1203.8
298.15 K, x2 = 0.1818 | 1205.5
298.15 K, x2 = 0.2983 | 1211.9
298.15 K, x2 = 0.3959 | 1221.4
298.15 K, x2 = 0.4962 | 1234.1
298.15 K, x2 = 0.6067 | 1251.5
298.15 K, x2 = 0.7034 | 1269.8
298.15 K, x2 = 0.811 | 1293.3
298.15 K, x2 = 0.9025 | 1316.4
298.15 K, x2 = 0.9506 | 1329.6
313.15 K, x2 = 0.0449 | 1128.5
313.15 K, x2 = 0.094 | 1128.3
313.15 K, x2 = 0.195 | 1131.3
313.15 K, x2 = 0.2962 | 1138.6
313.15 K, x2 = 0.3969 | 1149.5
313.15 K, x2 = 0.4983 | 1163.6
313.15 K, x2 = 0.5994 | 1180.8
313.15 K, x2 = 0.6987 | 1200.2
313.15 K, x2 = 0.8026 | 1223.8
313.15 K, x2 = 0.9066 | 1250.8
313.15 K, x2 = 0.9482 | 1263

C1CCCC1 [cyclopentane] + C1COCO1
[2]
Conditions | speed of sound [m/s]
283.15 K, x2 = 0.101 | 1277.3
283.15 K, x2 = 0.2019 | 1275.8
283.15 K, x2 = 0.3024 | 1278.6
283.15 K, x2 = 0.4023 | 1285
283.15 K, x2 = 0.5028 | 1295.3
283.15 K, x2 = 0.6 | 1307.9
283.15 K, x2 = 0.6995 | 1325.7
283.15 K, x2 = 0.796 | 1347.3
283.15 K, x2 = 0.8999 | 1375.7
298.15 K, x2 = 0.0998 | 1201.4
298.15 K, x2 = 0.1993 | 1200.8
298.15 K, x2 = 0.3005 | 1204.5
298.15 K, x2 = 0.4041 | 1212
298.15 K, x2 = 0.5024 | 1222.7
298.15 K, x2 = 0.6002 | 1236.4
298.15 K, x2 = 0.7004 | 1255.5
298.15 K, x2 = 0.7988 | 1278.8
298.15 K, x2 = 0.8992 | 1307.4
313.15 K, x2 = 0.1028 | 1125.3
313.15 K, x2 = 0.2032 | 1125.9
313.15 K, x2 = 0.3014 | 1130.2
313.15 K, x2 = 0.403 | 1138.5
313.15 K, x2 = 0.5008 | 1150
313.15 K, x2 = 0.6008 | 1165.5
313.15 K, x2 = 0.6991 | 1184.8
313.15 K, x2 = 0.7991 | 1209
313.15 K, x2 = 0.8987 | 1237.8
